Reference: patent publication US20060223837A1 (priority 2005, published 2006)
pEC50, pIC50: −log10 of the molar value.

Target: T1, human VR1 (Homo sapiens, UniProt Q8NER1)
T1 construct: expressed in transfected cells; host or cells: HEK293
Experiment: Human VR1 functional assay (FLIPR intracellular Ca2+)
Type: cell-based
Conditions: for pIC50: antagonism of capsaicin-induced Ca2+ increase, read-out: h IC50; for inhibition at 1 µM / h % I (1 μM) / inhibition at 5 µM / h % I (5 μM): inhibition of capsaicin response; for inhibition at 1 µM: read-out: h % I (1 μM); for inhibition at 5 µM: read-out: h % I (5 μM)
Procedure: The functional activity of the test compounds was determined by measuring changes in intracellular calcium concentration using a Ca^2+-sensitive fluorescent dye and FLIPR™ technology. Increases in Ca^2+ concentration were readily detected upon challenge with capsaicin. HEK293 Cells expressing human VR1 were grown on poly-D-lysine coated 384 well black-walled plates (BD 354663) and 1 day later loaded with Calcium 3 Dye for 35 min at 37 C, 5% CO2 and then for 25 min at room temperature, and subsequently tested for agonist-induced increases in intracellular Ca^2+ levels using FLIPR™ technology. Cells were challenged with test compounds (at varying concentrations, which are indicated in parentheses in the heading of the table below) and intracellular Ca^2+ was measured for 5 min prior to the addition of capsaicin to all wells to achieve a final concentration of eliciting an approximate 80% maximal response ([…]). EC50 or IC50 values were determined from dose-response studies. Curves were generated using the average of quadruplicate wells for each data point.

T1 sequence (Q8NER1 whole entry): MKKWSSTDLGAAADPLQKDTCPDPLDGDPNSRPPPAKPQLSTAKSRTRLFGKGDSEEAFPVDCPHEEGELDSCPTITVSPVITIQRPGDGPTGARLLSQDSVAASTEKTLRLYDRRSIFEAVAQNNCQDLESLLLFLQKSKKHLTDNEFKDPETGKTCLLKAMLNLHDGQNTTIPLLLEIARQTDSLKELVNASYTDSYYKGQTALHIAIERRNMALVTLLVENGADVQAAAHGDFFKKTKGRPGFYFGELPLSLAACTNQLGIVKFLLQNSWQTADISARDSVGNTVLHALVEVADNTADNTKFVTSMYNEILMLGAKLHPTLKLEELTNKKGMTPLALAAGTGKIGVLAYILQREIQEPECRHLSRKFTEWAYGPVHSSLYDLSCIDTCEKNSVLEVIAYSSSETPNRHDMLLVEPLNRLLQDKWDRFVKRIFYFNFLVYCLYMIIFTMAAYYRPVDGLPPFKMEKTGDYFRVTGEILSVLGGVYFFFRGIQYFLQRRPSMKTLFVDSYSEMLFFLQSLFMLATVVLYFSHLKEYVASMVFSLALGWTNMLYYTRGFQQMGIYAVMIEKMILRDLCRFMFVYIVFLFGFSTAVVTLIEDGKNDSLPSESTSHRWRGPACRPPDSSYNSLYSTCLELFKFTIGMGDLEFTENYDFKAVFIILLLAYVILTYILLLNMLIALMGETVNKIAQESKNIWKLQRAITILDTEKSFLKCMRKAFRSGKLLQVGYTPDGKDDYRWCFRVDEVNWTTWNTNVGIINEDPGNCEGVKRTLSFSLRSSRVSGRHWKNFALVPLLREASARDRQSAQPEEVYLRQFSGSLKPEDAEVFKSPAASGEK

Row | pIC50 | h % I (1 μM) [%] | inhibition at 5 µM [%] | Compound | other results
1 | 6.45 |  |  | O=C(CCc1ccc(SC(F)(F)F)cc1)Nc1ccc(-n2cnc(Cl)c2Cl)c(C(F)(F)F)c1 [Cpd 239] | inhibition at 1 µM: 88%
2 | 6.86 |  |  | Cc1cn(-c2ccc(NC(=O)CCc3ccc([S+]([O-])C(F)(F)F)cc3)cc2C(F)(F)F)cn1 (stereo not drawn) [Cpd 222] | inhibition at 1 µM: 100%
3 |  | 37 |  | CC(C)(C)c1ccc(CCC(=O)Nc2ccc(-c3cccnc3)c(CO)c2)cc1 [Cpd 170] | % Response Relative to EC80 of Capsaicin (6 μM) (agonist response, 6 μM): 101%
4 |  |  |  | CC(C)(C)c1ccc(CCC(=O)Nc2cc(F)c(-c3ccc(O)cc3)c(F)c2)cc1 [Cpd 90] | % Response Relative to EC80 of Capsaicin (6 μM) (agonist response, 6 μM): 17%
5 | 6.22 |  |  | O=C(CCc1ccc(C(F)(F)F)cn1)Nc1ccc(-n2cnc(Cl)c2Cl)c(C(F)(F)F)c1 [Cpd 248] | inhibition at 1 µM: 83%
6 | 6.26 |  | 97 | Cc1cc(NC(=O)CCc2ccc(C(F)(F)F)cc2)cnc1-n1ccnc1 [Cpd 247] | 
7 | 5.77 |  | 84 | Cc1cc(NC(=O)CCc2ccc(C(C)(C)C)cc2)cc(C)c1-c1ccc(CO)cc1 [Cpd 88] | 
8 |  | 16 |  | Cc1cc(NC(=O)/C=C/c2ccc(SC(F)(F)F)cc2)cnc1-n1cnc(Cl)c1Cl [Cpd 275] | 
9 | 6.71 |  | 99 | Cc1cc(NC(=O)CCc2ccc(C(C)(C)C)cc2)cnc1-c1cccnc1 [Cpd 164, 3-(4-tert-butyl-phenyl)-N-(3-methyl-[2,3′]bipyridinyl-5-yl)-propionamide] | 
10 | 6.74 |  | 93 | Cc1cc(NC(=O)CCc2ccc(C(C)(C)C)cc2)cc(C)c1-c1ccncc1 [Cpd 167, 3-(4-tert-butyl-phenyl)-N-(3,5-dimethyl-4-pyridin-4-yl-phenyl)-propionamide] | 
11 |  | 18 |  | Cc1cc(NC(=O)/C=C/c2ccc([S+]([O-])C(F)(F)F)cc2)cnc1-n1cnc(Cl)c1Cl (stereo not drawn) [Cpd 274] | 
12 |  |  |  | CC(C)(C)c1ccc(CCC(=O)Nc2ccc(-c3cccc(CO)c3)c(CO)c2)cc1 [Cpd 95] | Emax at 6 µM (agonist response, 6 μM, read-out: % Response Relative to EC80 of Capsaicin (6 μM)): 127%; pEC50 (agonist-induced Ca2+ increase, read-out: h EC50): 6.61; inhibition at 1 µM: 40%
13 |  | 1 |  | CC(C)(C)c1ccc(CCC(=O)Nc2cnc(-c3ccc(O)cc3)cn2)cc1 [Cpd 185] | h % I (5 μM): 24%
14 |  | 1 |  | CC(C)(C)c1ccc(CCC(=O)Nc2cnc(-c3ccccc3O)cn2)cc1 [Cpd 183] | h % I (5 μM): 9%
15 | 5.54 |  |  | Cc1cc(NC(=O)CCc2ccc(C(C)(C)C)cc2)cc(C)c1-c1ccccn1 [Cpd 174] | 
16 |  | 11 |  | CC(C)(C)c1ccc(CCC(=O)Nc2cnc(-c3cccnc3)cn2)cc1 [Cpd 187] | h % I (5 μM): 15%
17 |  |  | 64 | Cc1nc(-c2ccc(NC(=O)CCc3ccc(C(F)(F)F)cc3)cc2C(F)(F)F)no1 [Cpd 266, N-[4-(5-Methyl-[1,2,4]oxadiazol-3-yl)-3-trifluoromethyl-phenyl]-3-(4-trifluoromethyl-phenyl)-propionamide] | inhibition at 1 µM: 47%
18 | 6.34 |  |  | O=C(CCc1ccc([S+]([O-])C(F)(F)F)cc1)Nc1ccc(-n2cnc(Cl)c2Cl)c(C(F)(F)F)c1 (stereo not drawn) [Cpd 244] | inhibition at 1 µM: 85%
19 | 7.14 |  | 99 | Cc1cc(NC(=O)CCc2ccc(C(C)(C)C)cc2)cnc1-c1ccncc1 [Cpd 165, 3-(4-tert-butyl-phenyl)-N-(3-methyl-[2,4′]bipyridinyl-5-yl)-propionamide] | 
20 | 7.32 |  |  | Cc1cn(-c2ccc(NC(=O)CCc3ccc(S(=O)(=O)C(F)(F)F)cc3)cc2C(F)(F)F)cn1 [Cpd 209] | inhibition at 1 µM: 100%
21 |  | 20 |  | Cc1nccn1-c1ccc(NC(=O)CCc2ccc(C(F)(F)F)cc2)cc1C(F)(F)F [Cpd 267] | 
22 |  | 15 |  | CC(C)c1nccn1-c1ccc(NC(=O)CCc2ccc(C(F)(F)F)cc2)cc1C(F)(F)F [Cpd 268] | 
23 | 6.47 |  |  | O=C(CCc1ccc(C(F)(F)F)cc1)Nc1ccc(-n2cnc(C(F)(F)F)c2)c(C(F)(F)F)c1 [Cpd 238, 3-(4-Trifluoromethyl-phenyl)-N-[3-trifluoromethyl-4-(4-trifluoromethyl-imidazol-1-yl)-phenyl]-propionamide] | inhibition at 1 µM: 100%
24 |  |  | 90 | COc1cccc(-c2ncc(NC(=O)CCc3ccc(C(C)(C)C)cc3)cc2C)c1 [Cpd 259] | 
25 |  |  | 63 | O=C(CCc1ccc(C(F)(F)F)cc1)Nc1ccc(-c2noc(C(F)(F)F)n2)c(C(F)(F)F)c1 [Cpd 265, 3-(4-Trifluoromethyl-phenyl)-N-[3-trifluoromethyl-4-(5-trifluoromethyl-[1,2,4]oxadiazol-3-yl)-phenyl]-propionamide] | inhibition at 1 µM: 18%
26 | 7.01 |  | 100 | Cc1cc(NC(=O)CCc2ccc(C(C)(C)C)cc2)cnc1-c1ccc(CO)cc1 [Cpd 163, 3-(4-tert-butyl-phenyl)-N-[6-(4-hydroxymethyl-phenyl)-5-methyl-pyridin-3-yl]-propionamide] | 
27 |  |  |  | CC(C)(C)c1ccc(CCC(=O)Nc2cc(F)c(-c3cccc(O)c3)c(F)c2)cc1 [Cpd 89] | h % I (5 μM): 65%

Row | pIC50 | h % I (1 μM) [%] | inhibition at 5 µM [%] | Compound | other results
28 |  | 36 |  | Cc1cc(NC(=O)CCc2ccc([S+]([O-])C(F)(F)F)cc2)cnc1-n1cnc(Cl)c1Cl (stereo not drawn) [Cpd 273] | 
29 |  | 30 |  | O=C(CCc1ccc(F)cc1)Nc1ccc(-n2ccnc2)c(C(F)(F)F)c1 [Cpd 279] | 
30 | 6.96 |  | 97 | Cc1cc(NC(=O)CCc2ccc(C(C)(C)C)cc2)cc(C)c1-c1cccc(O)c1 [Cpd 86, 3-(4-tert-butyl-phenyl)-N-(3′-hydroxy-2,6-dimethyl-biphenyl-4-yl)-propionamide] | 
31 |  |  |  | O=C(CCc1ccc(C(F)(F)F)cc1)Nc1ccc(-n2cnc3c2CCCC3)c(C(F)(F)F)c1 [Cpd 270, N-[4-(4,5,6,7-Tetrahydro-benzoimidazol-1-yl)-3-trifluoromethyl-phenyl]-3-(4-trifluoromethyl-phenyl)-propionamide] | inhibition at 1 µM: 47%
32 | 6.36 |  |  | O=C(CCc1ccc(F)cc1)Nc1ccc(-n2cnc(Cl)c2Cl)c(C(F)(F)F)c1 [Cpd 243] | inhibition at 1 µM: 92%
33 |  | 24 |  | CC(C)(C)c1ccc(CCC(=O)Nc2ccc(-n3ccnc3)c(C(F)(F)F)c2)cc1 [Cpd 264] | h % I (5 μM): 48%
34 |  | 21 |  | O=C(CCc1ccc(C(F)(F)F)cc1)Nc1ccc(-n2ccc3ccccc32)c(C(F)(F)F)c1 [Cpd 269] | 
35 |  | 19 |  | Cc1cc(NC(=O)/C=C/c2ccc(C(F)(F)F)cn2)cnc1-n1cnc(Cl)c1Cl [Cpd 276] | 
36 | 5.54 |  | 76 | Cc1cc(NC(=O)CCc2ccc(C(C)(C)C)cc2)cc(C)c1-c1cccnc1 [Cpd 166] | 
37 | 6.53 |  |  | Cc1cc(NC(=O)CCc2ccc(C(C)(C)C)cc2)cnc1-c1ccccn1 [Cpd 177] | 
38 |  |  |  | Cc1cc(NC(=O)CCc2ccc(F)c(F)c2)cnc1-n1cnc(Cl)c1Cl [Cpd 257] | inhibition at 1 µM: 41%
39 | 6.07 |  | 92 | Cc1cc(NC(=O)CCc2ccc(C(C)(C)C)cc2)cc(C)c1-c1ccc(O)cc1 [Cpd 87] | 
40 |  | 16 |  | Cc1cc(NC(=O)CCc2ccc(F)cc2)cnc1-n1cnc(Cl)c1Cl [Cpd 280] | 
41 | 5.81 |  | 95 | CC(C)(C)c1ccc(CCC(=O)Nc2cc(F)c(-c3cccnc3)c(F)c2)cc1 [Cpd 168] | 
42 |  |  |  | O=C(CCc1ccc(F)c(F)c1)Nc1ccc(-n2ccnc2)c(C(F)(F)F)c1 [Cpd 256] | inhibition at 1 µM: 42%
43 | 6.21 |  | 100 | O=C(CCc1ccc(C(F)(F)F)cc1)Nc1cnc(-c2cccnc2)c(C(F)(F)F)c1 [Cpd 249] | 
44 | 7.44 |  | 94 | Cc1cc(NC(=O)CCc2ccc(C(C)(C)C)cc2)cnc1-c1cccc(O)c1 [Cpd 161, 3-(4-tert-butyl-phenyl)-N-[6-(3-hydroxy-phenyl)-5-methyl-pyridin-3-yl]-propionamide] | 
45 |  | 4 |  | CC(C)(C)c1ccc(CCC(=O)Nc2cnc(-c3ccncc3)cn2)cc1 [Cpd 188] | h % I (5 μM): 33%
46 | 6.85 |  |  | Cc1cc(NC(=O)CCc2ccc(C(C)(C)C)cc2)ccc1-c1ccccn1 [Cpd 172] | 
47 | 6.40 |  |  | CC(C)(C)c1ccc(CCC(=O)Nc2ccc(-c3cccnc3)c(F)c2)cc1 [Cpd 181] | 
48 | 7.19 |  | 100 | O=C(CCc1ccc(C(F)(F)F)cc1)Nc1cnc(-c2ccccc2O)c(C(F)(F)F)c1 [Cpd 213] | 
49 |  | 1 |  | CC(C)(C)c1ccc(CCC(=O)Nc2cnc(-c3cccc(O)c3)cn2)cc1 [Cpd 184] | h % I (5 μM): 14%
50 | 7.00 |  |  | Cc1cn(-c2ccc(NC(=O)CCc3ccc(SC(F)(F)F)cc3)cc2C(F)(F)F)cn1 [Cpd 219] | inhibition at 1 µM: 100%
51 |  | 26 |  | COC(=O)c1cn(-c2ccc(NC(=O)CCc3ccc(C(F)(F)F)cc3)cc2C(F)(F)F)cn1 [Cpd 271] | 
52 |  |  |  | CC(C)(C)c1ccc(CCC(=O)Nc2cc(F)c(-c3ccc(CO)cc3)c(F)c2)cc1 [Cpd 91] | % Response Relative to EC80 of Capsaicin (6 μM) (agonist response, 6 μM): 22%
53 | 6.90 |  | 99 | Cc1cc(NC(=O)CCc2ccc(C(C)(C)C)cc2)cnc1-c1ccc(O)cc1 [Cpd 162, 3-(4-tert-butyl-phenyl)-N-[6-(4-hydroxy-phenyl)-5-methyl-pyridin-3-yl]-propionamide] | 

Row | Compound | pIC50 | h % I (1 μM) [%] | inhibition at 5 µM [%] | other results
54 | Cc1cc(NC(=O)CCc2ccc(SC(F)(F)F)cc2)cnc1-n1cnc(Cl)c1Cl |  | 41 |  | 
